Source: US6355799B1, “Substituted benzene compounds, process for their preparation, and herbicidal and defoliant compositions containing them” (ISK Americas Incorporated, priority 1997, dated 2002)

Experiments:
Assay type in all cases: in vivo
[1] = system: barnyardgrass (Echinochloa crus-galli, ECHCG); experiment: Pre-emerge test, greenhouse herbicide activity screening; conditions: phytotoxicity rating 0-100, 14 days after application
Method in brief: (§1)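 Compounds in acetone were track-sprayed at 187 l/ha, 15–1000 g ai/ha, onto sandy loam pots. Pre-emerge seeds were sown one day before spraying, with surface watering afterwards. Post-emerge plants were at the 2–3 leaf stage and sprayed with 0.25% v/v non-ionic surfactant. Injury was rated 0–100 at 14 days.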

[2] = system: lambsquarters (Chenopodium album, CHEAL); experiment: as above; conditions: phytotoxicity rating 0-100, 14 days after application
Method in brief: as §1

[3] = system: large crabgrass (Digitaria sanguinalis, DIGSA); experiment: as above; conditions: phytotoxicity rating 0-100, 14 days after application
Method in brief: as §1

[4] = system: sicklepod (Cassia obtusifolia, CASOB); experiment: as above; conditions: phytotoxicity rating 0-100, 14 days after application
Method in brief: as §1

[5] = system: ivyleaf morningglory (Ipomoea hederacea, IPOHE); experiment: as above; conditions: phytotoxicity rating 0-100, 14 days after application
Method in brief: as §1

[6] = system: velvetleaf (Abutilon theophrasti, ABUTH); experiment: as above; conditions: phytotoxicity rating 0-100, 14 days after application
Method in brief: as §1

[7] = system: johnsongrass (Sorghum halepense, SORHA); experiment: as above; conditions: phytotoxicity rating 0-100, 14 days after application
Method in brief: as §1

[8] = system: green foxtail (Setaria viridis, SETVI); experiment: as above; conditions: phytotoxicity rating 0-100, 14 days after application
Method in brief: as §1

[9] = system: upland rice (Oryza sp., var. Tebonnet, RICE); experiment: Pre-emerge test, crop safety; conditions: crop damage rating 0-100, 14 days after application
Method in brief: (§2)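 Fourteen days after spraying, crop and weed injury was graded visually from 0, no effect, to 100, every plant dead. Test substances were dissolved in acetone and applied at 15–1000 g ai/ha with a flat-fan nozzle. Application was either pre-emergence, one day after sowing, or post-emergence at the 2–3 leaf stage.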

[10] = system: field corn (Zea mays L., var. Dekalb 535, CORN); experiment: Pre-emerge test, crop safety; conditions: crop damage rating 0-100, 14 days after application
Method in brief: as §2

[11] = system: lambsquarters (Chenopodium album, CHEAL); experiment: Post-emerge test, greenhouse herbicide activity screening; conditions: post-emerge, 14 days after application, rating scale 0-100
Method in brief: (§3)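 Compounds in acetone were track-sprayed at 15–1000 g ai/ha: pre-emergence onto soil sown the previous day, then top-watered to incorporate and later bottom-watered; post-emergence onto 2–3 leaf plants with 0.25% v/v surfactant, bottom-watered only. Ratings on a 0–100 phytotoxicity scale were taken at day 14.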

[12] = system: large crabgrass (Digitaria sanguinalis, DIGSA); experiment: as above; conditions: post-emerge, 14 days after application, rating scale 0-100
Method in brief: as §3

[13] = system: sicklepod (Cassia obtusifolia, CASOB); experiment: as above; conditions: post-emerge, 14 days after application, rating scale 0-100
Method in brief: as §3

[14] = system: ivyleaf morningglory (Ipomoea hederacea, IPOHE); experiment: as above; conditions: post-emerge, 14 days after application, rating scale 0-100
Method in brief: as §3

[15] = system: velvetleaf (Abutilon theophrasti, ABUTH); experiment: as above; conditions: post-emerge, 14 days after application, rating scale 0-100
Method in brief: as §3

[16] = system: johnsongrass (Sorghum halepense, SORHA); experiment: as above; conditions: post-emerge, 14 days after application, rating scale 0-100
Method in brief: as §3

[17] = system: redroot pigweed (Amaranthus retroflexus, AMARE); experiment: as above; conditions: post-emerge, 14 days after application
Method in brief: as §3

[18] = system: green foxtail (Setaria viridis, SETVI); experiment: as above; conditions: post-emerge, 14 days after application, rating scale 0-100
Method in brief: as §3

[19] = system: redroot pigweed (Amaranthus retroflexus, AMARE); experiment: Pre-emerge test, greenhouse herbicide activity screening; conditions: phytotoxicity rating 0-100, 14 days after application
Method in brief: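 Herbicidal damage is scored 0 (none) to 100 (complete plant death) two weeks after a simulated field spray. Rates span 15–1000 g ai/ha, delivered in acetone at 187 l/ha. For post-emergence treatments, plants have 2–3 leaves and the spray carries 0.25% v/v non-ionic surfactant.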

[20] = system: upland rice (Oryza sp., var. Tebonnet, RICE); experiment: Post-emerge test, crop safety; conditions: post-emerge, 14 days after application, rating scale 0-100
Method in brief: as §1

[21] = system: field corn (Zea mays L., var. Dekalb 535, CORN); experiment: Post-emerge test, crop safety; conditions: post-emerge, 14 days after application, rating scale 0-100
Method in brief: as §1

[22] = 63 g ai/ha, rating scale 0-100 (0 no damage, 100 complete death)
[23] = 250 g ai/ha, rating scale 0-100

Which “Pre-emerge Herbicidal Activity ECHCG” value ([1]; 63 g ai/ha) does the source give for `COc1c(Cl)cc(F)c(-n2c(=O)cc(C(F)(F)F)n(C)c2=O)c1NC(=O)OCc1c(Cl)cccc1Cl` [4-24] here?
The value was 10.

What about the “Pre-emerge Herbicidal Activity ECHCG” value ([1]; 250 g ai/ha) of the same compound?
Its value is 50.

And the “Pre-emerge Herbicidal Activity CHEAL” value ([2]; 63 g ai/ha)?
Its value is 100.

And the “Pre-emerge Herbicidal Activity CHEAL” value ([2]; 250 g ai/ha)?
Its value is 100.

What about the “Pre-emerge Herbicidal Activity DIGSA” value ([3]; 63 g ai/ha) of the same compound?
Its value is 30.

And the “Pre-emerge Herbicidal Activity DIGSA” value ([3]; 250 g ai/ha)?
The value was 70.

And the “Pre-emerge Herbicidal Activity CASOB” value ([4]; 63 g ai/ha)?
The value was 0.

And the “Pre-emerge Herbicidal Activity CASOB” value ([4]; 250 g ai/ha)?
The value was 80.

And the “Pre-emerge Herbicidal Activity IPOHE” value ([5]; 63 g ai/ha)?
Its value is 20.

And the “Pre-emerge Herbicidal Activity IPOHE” value ([5]; 250 g ai/ha)?
The value was 30.

And the “Pre-emerge Herbicidal Activity ABUTH” value ([6]; 63 g ai/ha)?
The value was 50.

And the “Pre-emerge Herbicidal Activity ABUTH” value ([6]; 250 g ai/ha)?
The value was 100.

And the “Pre-emerge Herbicidal Activity SORHA” value ([7]; 63 g ai/ha)?
Its value is 10.

What about the “Pre-emerge Herbicidal Activity SORHA” value ([7]; 250 g ai/ha) of the same compound?
The value was 40.

And the “Pre-emerge Herbicidal Activity SETVI” value ([8]; 63 g ai/ha)?
The value was 90.

What about the “Pre-emerge Herbicidal Activity SETVI” value ([8]; 250 g ai/ha) of the same compound?
The value was 100.

And the “Pre-emerge Herbicidal Activity RICE” value ([9]; 63 g ai/ha)?
The value was 10.

What about the “Pre-emerge Herbicidal Activity RICE” value ([9]; 250 g ai/ha) of the same compound?
The value was 50.

What about the “Pre-emerge Herbicidal Activity CORN” value ([10]; 63 g ai/ha) of the same compound?
The value was 0.

And the “Pre-emerge Herbicidal Activity CORN” value ([10]; 250 g ai/ha)?
The value was 5.

And the “phytotoxicity rating CHEAL” value ([11]; 63 g ai/ha)?
Its value is 100.

What about the “phytotoxicity rating CHEAL” value ([11]; 250 g ai/ha) of the same compound?
Its value is 100.

What about the “phytotoxicity rating DIGSA” value ([12]; 63 g ai/ha) of the same compound?
Its value is 40.

And the “phytotoxicity rating DIGSA” value ([12]; 250 g ai/ha)?
Its value is 50.

What about the “phytotoxicity rating CASOB” value ([13]; 63 g ai/ha) of the same compound?
The value was 70.

And the “phytotoxicity rating CASOB” value ([13]; 250 g ai/ha)?
Its value is 100.

And the “phytotoxicity rating IPOHE” value ([14]; 63 g ai/ha)?
Its value is 100.

What about the “phytotoxicity rating IPOHE” value ([14]; 250 g ai/ha) of the same compound?
The value was 100.

And the “phytotoxicity rating ABUTH” value ([15]; 63 g ai/ha)?
The value was 100.

And the “phytotoxicity rating ABUTH” value ([15]; 250 g ai/ha)?
Its value is 100.

What about the “phytotoxicity rating SORHA” value ([16]; 63 g ai/ha) of the same compound?
Its value is 40.

And the “phytotoxicity rating SORHA” value ([16]; 250 g ai/ha)?
Its value is 60.

What about the “phytotoxicity rating AMARE” value [17, 22] of the same compound?
The value was 100.

And the “phytotoxicity rating AMARE” value [17, 23]?
Its value is 100.

What about the “phytotoxicity rating SETVI” value ([18]; 63 g ai/ha) of the same compound?
The value was 50.

What about the “phytotoxicity rating SETVI” value ([18]; 250 g ai/ha) of the same compound?
Its value is 80.

And the “Pre-emerge Herbicidal Activity AMARE” value ([19]; 63 g ai/ha)?
Its value is 100.

And the “Pre-emerge Herbicidal Activity AMARE” value ([19]; 250 g ai/ha)?
Its value is 100.

And the “phytotoxicity rating RICE (crop damage)” value ([20]; 63 g ai/ha)?
Its value is 20.

What about the “phytotoxicity rating RICE (crop damage)” value ([20]; 250 g ai/ha) of the same compound?
Its value is 45.

And the “phytotoxicity rating CORN (crop damage)” value ([21]; 63 g ai/ha)?
Its value is 35.

And the “phytotoxicity rating CORN (crop damage)” value ([21]; 250 g ai/ha)?
Its value is 70.

Which results are given for `COc1c(Cl)cc(F)c(-n2c(=O)cc(C(F)(F)F)n(C)c2=O)c1NC(=O)Oc1c(C)cc(C)cc1C` [4-25]?
Pre-emerge Herbicidal Activity ECHCG ([1]; 63 g ai/ha): 0; Pre-emerge Herbicidal Activity ECHCG ([1]; 250 g ai/ha): 0; Pre-emerge Herbicidal Activity CHEAL ([2]; 63 g ai/ha): 60; Pre-emerge Herbicidal Activity CHEAL ([2]; 250 g ai/ha): 100; Pre-emerge Herbicidal Activity DIGSA ([3]; 63 g ai/ha): 0; Pre-emerge Herbicidal Activity DIGSA ([3]; 250 g ai/ha): 10; Pre-emerge Herbicidal Activity CASOB ([4]; 63 g ai/ha): 0; Pre-emerge Herbicidal Activity CASOB ([4]; 250 g ai/ha): 20; Pre-emerge Herbicidal Activity IPOHE ([5]; 63 g ai/ha): 0; Pre-emerge Herbicidal Activity IPOHE ([5]; 250 g ai/ha): 0; Pre-emerge Herbicidal Activity ABUTH ([6]; 63 g ai/ha): 0; Pre-emerge Herbicidal Activity ABUTH ([6]; 250 g ai/ha): 60; Pre-emerge Herbicidal Activity SORHA ([7]; 63 g ai/ha): 0; Pre-emerge Herbicidal Activity SORHA ([7]; 250 g ai/ha): 0; Pre-emerge Herbicidal Activity SETVI ([8]; 63 g ai/ha): 0; Pre-emerge Herbicidal Activity SETVI ([8]; 250 g ai/ha): 50; Pre-emerge Herbicidal Activity RICE ([9]; 63 g ai/ha): 0; Pre-emerge Herbicidal Activity RICE ([9]; 250 g ai/ha): 0; Pre-emerge Herbicidal Activity CORN ([10]; 63 g ai/ha): 0; Pre-emerge Herbicidal Activity CORN ([10]; 250 g ai/ha): 0; phytotoxicity rating CHEAL ([11]; 63 g ai/ha): 75; phytotoxicity rating CHEAL ([11]; 250 g ai/ha): 85; phytotoxicity rating DIGSA ([12]; 63 g ai/ha): 0; phytotoxicity rating DIGSA ([12]; 250 g ai/ha): 0; phytotoxicity rating CASOB ([13]; 63 g ai/ha): 20; phytotoxicity rating CASOB ([13]; 250 g ai/ha): 30; phytotoxicity rating IPOHE ([14]; 63 g ai/ha): 40; phytotoxicity rating IPOHE ([14]; 250 g ai/ha): 60; phytotoxicity rating ABUTH ([15]; 63 g ai/ha): 70; phytotoxicity rating ABUTH ([15]; 250 g ai/ha): 95; phytotoxicity rating SORHA ([16]; 63 g ai/ha): 0; phytotoxicity rating SORHA ([16]; 250 g ai/ha): 10; phytotoxicity rating AMARE [17, 22]: 70; phytotoxicity rating AMARE [17, 23]: 100; phytotoxicity rating SETVI ([18]; 63 g ai/ha): 20; phytotoxicity rating SETVI ([18]; 250 g ai/ha): 30; Pre-emerge Herbicidal Activity AMARE ([19]; 63 g ai/ha): 30; Pre-emerge Herbicidal Activity AMARE ([19]; 250 g ai/ha): 100; phytotoxicity rating RICE (crop damage) ([20]; 63 g ai/ha): 0; phytotoxicity rating RICE (crop damage) ([20]; 250 g ai/ha): 20; phytotoxicity rating CORN (crop damage) ([21]; 63 g ai/ha): 5; phytotoxicity rating CORN (crop damage) ([21]; 250 g ai/ha): 15
